Consider six molecules from patent US20250049800A1, “VCP/p97 INHIBITOR FOR THE TREATMENT OF CANCER” (CASI Pharmaceuticals, Inc., priority 2021, published 2025).

Data set [1] has as its system MOML-13 (Human Acute Myeloid Leukemia cell line). Put plainly: Combination Index (Chou-Talalay) of Compound 1 with second therapeutic agents. Type of data set: cell-based. Conditions: agent in combination with Compound 1; CI scores across all 3 ratios averaged; MOML-13. Here is the method:
(§1) Each combination was tested in 3 cell lines: MOML-13 (Human Acute Myeloid Leukemia cell line; Addex Bio), MV-4-11 (Human B Myelomoncytic Leukemia cell line; ATCC), and OCI-AML-3 (Human Acute Myeloid Leukemia cell line).
(§2) Within this range, 20 dose levels were tested for each combination, with each response determined in duplicate. […] The actual drug concentrations in the ratios were determined from the IC50 values obtained for each individual drug.
(§3) Raw data was analyzed using Graph Pad Prism, four parameter logistic fits, and Chou-Talalay drug combination analyses. […] For data points with Fe<0, the fractional effect was set to 0.001. Data points with Fe>0.99 or <0.01 were omitted from the Chou-Talalay analysis because the Chou-Talalay analysis fits data to the Log of the fractional effect, with equal weight applied across the range of effect, such that the high and low end of the dose response, very small changes in effect within the range of experimental error erroneously skew the outcome of the model fit.
(§4) A Combination Index (CI) vs Fractional Effect plot showing the actual combination index plotted vs Fractional effect value was plotted for each combination dose. In this analysis, CI=1 represents additive activity, CI>1 represent less than additive activity (often referred to as antagonism) and CI<1=synergistic activity (better than additive).

For data set [2], the system named is MV-4-11 (Human B Myelomoncytic Leukemia cell line). The description is as above. Conditions: agent in combination with Compound 1; CI scores across all 3 ratios averaged; MV-4-11. The class given is cell-based. The method, then: as §1, §2, §3, §4
Data set [3] deals with OCI-AML-3 (Human Acute Myeloid Leukemia cell line). Described as above. Type of data set: cell-based. Conditions: agent in combination with Compound 1; CI scores across all 3 ratios averaged; OCI-AML-3. Here is the method:
as §1, §2, §3, §4

A further data set has as its system HL-60 cell line. In words: Cell Titer-Glo viability, fixed agent + dose response agent combinations. The class given is cell-based, human. Conditions: Homo sapiens. Here is the method:
(§5) The additional therapeutic agents for this example were azacitidine (Cayman Chemical Cat No. 11164), decitabine (Sigma Cat No. A3656) and venetoclax (InvivoChem Cat. No. V0001).
(§6) Cell Culture: Three human acute myeloid leukemia tumor cell lines were used in this study: HL60, MV4;11 and MOLM-13. HL60 and MV4;11 were grown in IMDM base media with 20% and 10% FBS, respectively. MOLM-13 was grown in RPMI 1640 base media with 20% FBS. All culture media contained 2 mM glutamine, 100 units/mL sodium penicillin G, […] gentamicin, and 100 µg/mL streptomycin sulfate. The tumor cells were cultured in tissue culture flasks in a humidified incubator at 37° C., in an atmosphere of 5% CO2 and 95% air. Assay: Tumor cells were seeded in duplicate in a volume of 100 µL/well of media into 96-well micro-culture plates at initial densities low enough to allow for several population doublings (typically three to five) during the indicated incubation period. After a 24 hour incubation, test agents were added to each well. After 72 hours of culture with test articles, cell viability was determined using the Cell Titer-Glo® (Promega G7571) assay. Briefly, Cell Titer-Glo® (Promega G7571) reagents were equilibrated at room temperature for 30 minutes; 100 μL per well was added at endpoint (72 hours). Plates were gently shaken for two minutes and then incubated at room temperature for ten minutes prior to reading luminescence on the BMG Clariostar Plus microplate reader.
(§7) An IC50 ratio for each combination was calculated from the ratio of the combination IC50 as compared to the applicable no fixed agent (vehicle) control.
(Cellular ATP, detected with luciferase, serves as a proxy for viable cell number.)

A further data set has as its system MOML-13 cell line. Described as above. Conditions: Homo sapiens. The class given is cell-based, human. Here is the method:
as §5, §6, §7

In the next data set the test system is MV4; 11 cell line. The data set is described as above. The class given is cell-based, human. Conditions: Homo sapiens. Here is the method: as §5, §6, §7
The conditions of data set [4]: CB-5083 tested previously in subjects; cited from earlier work.
A further data set deals with Capan-1 (Pancreas). In words: Cell Titer-Glo viability: single agent IC50 and Compound 1 + PARP inhibitor matrix (Bliss). Type of data set: cell-based. Conditions: single agent, read-out: Absolute IC50. The method, then: (§8) The PARP inhibitors used for the study were talazoparib, olaparib and niraparib. […] was used as a reference control. […] For each drug agent on its own, IC50 values in each cell line were determined. Interactions of the combinations of Compound 1 and each PARP inhibitor was assessed as follows: […] Cisplatin and culture media were used as positive and negative control, respectively. The combination activities were assessed using CrownSyn software to determine synergy scores by Bliss Independence and Loewe additivity methods. […] Synergy scores calculated by both Bliss independence model and Loewe additivity model (see Greco, […]., Poch, G., Suhnel, J., Kundi, M., & Bodeker, W. (1992). Consensus on concepts and terminology for combined-action assessment: the […] agreement. […] Without being bound by theory, the Bliss independence model is often applied to asses synergy for non-interacting drugs that elicit their responses independently, e.g., by targeting separate pathways, whereas the Loewe additivity model may be more compatible where both drugs have similar modes of action on the same targets or pathways.

The test system of the next data set is DU4475 (Breast). The description is as above. The class given is cell-based. Conditions: single agent, read-out: Absolute IC50. Here is the method: as §8
Data set [5] deals with DoTc2 4510 (Uterus/Cervix). The description is as above. The class given is cell-based. Conditions: single agent, read-out: Absolute IC50. The method, then: as §8
The test system of another data set is HCC1395 (Breast). The data set is described as above. The class given is cell-based. Conditions: single agent, read-out: Absolute IC50. Here is the method:
as §8

The test system of a further data set is HCC1806 (Breast). Described as above. Type of data set: cell-based. Conditions: single agent, read-out: Absolute IC50. The method, then: as §8
The next data set relates to HCC1937 (Breast). The data set is described as above. The class given is cell-based. Conditions: single agent, read-out: Absolute IC50. Here is the method: as §8
Another data set relates to IGR-OV1 (Ovary). The data set is described as above. Conditions: single agent, read-out: Absolute IC50. Type of data set: cell-based. The method, then: as §8
The next data set concerns MX-1 (Breast). The description is as above. The class given is cell-based. Conditions: single agent, read-out: Absolute IC50. The method, then:
as §8

Another data set concerns OVCAR-8 (Ovary). The data set is described as above. The class given is cell-based. Conditions: single agent, read-out: Absolute IC50. The method, then:
as §8

For a further data set, the system named is SK-OV-3 (Ovary). The data set is described as above. Conditions: single agent, read-out: Absolute IC50. The class given is cell-based. Here is the method:
as §8

Like-named read-outs stand apart in the source and are kept apart here.

With `COCC1(CO)C(=O)C2CCN1CC2` (centres unmarked) [APR-246], the “Combination Index” value is listed as 1.228 in [1], 1.285 in [2] and 1.279 in data set [3].

`CN(C)CCCOc1ccc(-c2ccc3ncc4c(c3c2)n(C2CCOCC2)c(=O)n4C)cn1` [AZDO156]: the “Combination Index” value in [1] is given as 1.293; in [2], 1.122; in data set [3], 1.159.

On to `Nc1ncn([C@@H]2O[C@H](CO)[C@@H](O)[C@H]2O)c(=O)n1` [Azacitidine, azacitidine, reference compound], for which the half-inhibitory concentration (IC50) in the data set on HL-60 cell line (HL-60, HL-60, fixed agent Compound 1 - 210 nM, read-out: IC50) was determined as 1960 nM; in the data set with MOML-13 cell line (MOML-13, fixed agent Compound 1 - 75 nM, read-out: IC50), 125 nM; in the data set on MV4; 11 cell line (MV4-11, MV4, 11, fixed agent Compound 1 - 185 nM, read-out: IC50), 110 nM.

Take `Cc1cc2c(C(N)=O)cccc2n1-c1nc2c(c(NCc3ccccc3)n1)COCC2` [CB-5083, 1-[7,8-dihydro-4-[(phenylmethyl)amino]-5H-pyrano[4,3-d]pyrimidin-2-yl]-2-methyl-1H-indole-4-carboxamide]: in data set [4], the visual adverse events entry was “symptoms of visual impairment or other visual adverse events”.

In the case of `N.N.[Cl][Pt][Cl]` [Cisplatin], the IC50 in the data set with Capan-1 (Pancreas) was determined as 1680 nM; with DU4475 (Breast), 1600 nM; in data set [5] it was 10200 nM; in the data set on HCC1395 (Breast), 4750 nM; with HCC1806 (Breast) it was 3240 nM; in the data set with HCC1937 (Breast), 12000 nM. Further, the IC50 with IGR-OV1 (Ovary) amounted to 1450 nM; in the data set with MX-1 (Breast) it was 6600 nM; in the data set with OVCAR-8 (Ovary), 9220 nM; in the data set with SK-OV-3 (Ovary), 8300 nM.

Turning to `Nc1ncn([C@H]2C[C@H](O)[C@@H](CO)O2)c(=O)n1` [Decitabine, decitabine, reference compound], the IC50 was found to be 4030 nM with HL-60 cell line (HL-60); 5290 nM in the data set with HL-60 cell line (HL-60, 72 h); 6.5 nM with MOML-13 cell line; 10.8 nM with MOML-13 cell line (72 h); 7.1 nM with MV4; 11 cell line (MV4-11); 390 nM in the data set on MV4; 11 cell line (MV4-11, 72 h).

As usually defined, the IC50 is the concentration at which inhibition is half-maximal.
